Reference: the supplement of paper PMC4628005

Legend:
Conditions in all cases: drug exposure time: 96 h
[1] = compound: C=CCNC1=C2C[C@@H](C)C[C@H](OC)[C@H](O)[C@@H](C)/C=C(\C)[C@H](OC(N)=O)[C@@H](OC)/C=C\C=C(/C)C(=O)NC(=CC1=O)C2=O [17-AAG]
Protocol: (§1)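 Same SRB 96 h IC50 screen on breast cancer cell lines (RPMI 1640 + 10% FBS, collagen I-coated 96-well plates, triplicates, 12 dilutions), for drugs with a different dose range: Bortezomib up to 2e-5 M; Sirolimus and 17-AAG up to 2e-6 M. Sirolimus values at the 2e-6 M top dose are censored.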

[2] = compound: CC(C)C[C@H](NC(=O)[C@H](Cc1ccccc1)NC(=O)c1cnccn1)B(O)O [Bortezomib]
Protocol: as §1

[3] = compound: CO[C@H]1C[C@@H]2CC[C@@H](C)[C@@](O)(O2)C(=O)C(=O)N2CCCC[C@H]2C(=O)O[C@H]([C@H](C)C[C@@H]2CC[C@@H](O)[C@H](OC)C2)CC(=O)[C@H](C)/C=C(\C)[C@@H](O)[C@@H](OC)C(=O)[C@H](C)C[C@H](C)/C=C/C=C/C=C/1C [Sirolimus]
Protocol: as §1

[4] = compound: CC/C(=C(\c1ccccc1)c1ccc(OCCN(C)C)cc1)c1ccccc1 [Tamoxifen]
Protocol: (§2)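 Breast cancer cell lines were grown in RPMI 1640 with 10% FBS on collagen I-coated 96-well plates and treated for 96 h (from 24 h after seeding) with 12 dilutions per drug, in triplicate. Growth was read by sulforhodamine B total-protein staining (absorbance 570 nm) relative to diluent control, and IC50 was calculated. The top dose was 1e-5 M for most drugs; Bortezomib went to 2e-5 M and Sirolimus and 17-AAG to 2e-6 M[…].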

[5] = compound: CC(C)(C)C[C@H]1N[C@@H](C(=O)NCC[C@H](O)CO)[C@H](c2cccc(Cl)c2)[C@@]12C(=O)Nc1cc(Cl)c(F)cc12 [MI-219]
Protocol: as §2

[6] = compound: O=C(/C=C/c1cccc(S(=O)(=O)Nc2ccccc2)c1)NO [Belinostat]
Protocol: as §2

[7] = compound: Cc1cc2c(F)c(Oc3ncnn4cc(OC[C@@H](C)O)c(C)c34)ccc2[nH]1 [Brivanib]
Protocol: as §2

[8] = compound: Cc1nc(Nc2ncc(C(=O)Nc3c(C)cccc3Cl)s2)cc(N2CCN(CCO)CC2)n1 [Dasatinib]
Protocol: as §2

[9] = compound: CC(=O)O[C@@]12CO[C@@H]1C[C@H](O)[C@@]1(C)C(=O)[C@H](O)C3=C(C)[C@@H](OC(=O)[C@H](O)[C@@H](NC(=O)OC(C)(C)C)c4ccccc4)C[C@@](O)([C@@H](OC(=O)c4ccccc4)[C@H]21)C3(C)C [Docetaxel]
Protocol: as §2

[10] = compound: C#Cc1cccc(Nc2ncnc3cc(OCCOC)c(OCCOC)cc23)c1 [Erlotinib]
Protocol: as §2

[11] = compound: CN(Cc1cnc2nc(N)nc(N)c2n1)c1ccc(C(=O)N[C@@H](CCC(=O)O)C(=O)O)cc1 [Methotrexate]
Protocol: as §2

[12] = compound: CNC(=O)c1cc(Oc2ccc(NC(=O)Nc3ccc(Cl)c(C(F)(F)F)c3)cc2)ccn1 [Sorafenib]
Protocol: as §2

[13] = compound: Nc1ncn([C@H]2C[C@H](O)[C@@H](CO)O2)c(=O)n1 [Decitabine]
Protocol: as §2

[14] = compound: COc1ccc(C2=N[C@@H](c3ccc(Cl)cc3)[C@@H](c3ccc(Cl)cc3)N2C(=O)N2CCNC(=O)C2)c(OC(C)C)c1 [Nutlin-3]
Protocol: as §2

[15] = compound: O=C1NC(=O)[C@@H](c2cn3c4c(cccc24)CCC3)[C@@H]1c1c[nH]c2ccccc12 [ARQ197]
Protocol: as §2

[16] = compound: COc1cc2ncnc(Nc3ccc(F)c(Cl)c3)c2cc1OCCCN1CCOCC1 [Gefitinib]
Protocol: as §2

[17] = compound: Nc1ncn([C@@H]2O[C@H](CO)[C@@H](O)[C@H]2O)c(=O)n1 [Azacitidine]
Protocol: as §2

[18] = compound: c1ccc2c(CCNc3ccc(Nc4ccncc4)cc3)c[nH]c2c1 [Serdemetan]
Protocol: as §2

[19] = compound: CCN(CC)CCNC(=O)c1c(C)[nH]c(/C=C2\C(=O)Nc3ccc(F)cc32)c1C [Sunitinib]
Protocol: as §2

[20] = compound: Cc1[nH]c2ccccc2c1CCNCc1ccc(/C=C/C(=O)NO)cc1 [Panobinostat]
Protocol: as §2

[21] = compound: CS(=O)(=O)CCNCc1ccc(-c2ccc3ncnc(Nc4ccc(OCc5cccc(F)c5)c(Cl)c4)c3c2)o1 [Lapatinib]
Protocol: as §2

[22] = compound: CC(=O)O[C@H]1C(=O)[C@@]2(C)[C@H]([C@H](OC(=O)c3ccccc3)[C@]3(O)C[C@H](OC(=O)[C@H](O)[C@@H](NC(=O)c4ccccc4)c4ccccc4)C(C)=C1C3(C)C)[C@]1(OC(C)=O)CO[C@@H]1C[C@@H]2O [Paclitaxel]
Protocol: as §2

[23] = compound: O=c1[nH]cc(F)c(=O)[nH]1 [5-Fluorouracil]
Protocol: as §2

[24] = compound: Cn1cncc1[C@@](N)(c1ccc(Cl)cc1)c1ccc2c(c1)c(-c1cccc(Cl)c1)cc(=O)n2C [Tipifarnib]
Protocol: as §2

[25] = compound: COc1cccc2c1C(=O)c1c(O)c3c(c(O)c1C2=O)C[C@@](O)(C(=O)CO)C[C@@H]3O[C@H]1C[C@H](N)[C@H](O)[C@H](C)O1 [Doxorubicin]
Protocol: as §2

[26] = compound: Cn1cc(CNCC2CCN(c3ncc(C(=O)NO)cn3)CC2)c2ccccc21 [Quisinostat]
Protocol: as §2

[27] = compound: COc1cc2/c(=N/c3ccc(Br)cc3F)nc[nH]c2cc1OCC1CCN(C)CC1 [Vandetanib]
Protocol: as §2

[28] = compound: O=C1c2c(O)ccc(O)c2C(=O)c2c(NCCNCCO)ccc(NCCNCCO)c21 [Mitoxantrone]
Protocol: as §2

[29] = compound: O=C(CCCCCCC(=O)Nc1ccccc1)NO [Vorinostat]
Protocol: as §2

[30] = compound: N.N.[Cl][Pt][Cl] [Cisplatin]
Protocol: as §2

Row | Test System | IC50 (SRB growth assay) [1] [nM] | IC50 (SRB growth assay) [2] [nM] | IC50 (SRB growth assay) [3] [nM] | IC50 (SRB growth assay) [4] [nM] | IC50 (SRB growth assay) [5] [nM] | IC50 (SRB growth assay) [6] [nM] | IC50 (SRB growth assay) [7] [nM] | IC50 (SRB growth assay) [8] [nM] | IC50 (SRB growth assay) [9] [nM] | IC50 (SRB growth assay) [10] [nM] | IC50 (SRB growth assay) [11] [nM] | IC50 (SRB growth assay) [12] [nM] | IC50 (SRB growth assay) [13] [nM] | IC50 (SRB growth assay) [14] [nM] | IC50 (SRB growth assay) [15] [nM] | IC50 (SRB growth assay) [16] [nM] | IC50 (SRB growth assay) [17] [nM] | IC50 (SRB growth assay) [18] [nM] | IC50 (SRB growth assay) [19] [nM] | IC50 (SRB growth assay) [20] [nM] | IC50 (SRB growth assay) [21] [nM] | IC50 (SRB growth assay) [22] [nM] | IC50 (SRB growth assay) [23] [nM] | IC50 (SRB growth assay) [24] [nM] | IC50 (SRB growth assay) [25] [nM] | IC50 (SRB growth assay) [26] [nM] | IC50 (SRB growth assay) [27] [nM] | IC50 (SRB growth assay) [28] [nM] | IC50 (SRB growth assay) [29] [nM] | IC50 (SRB growth assay) [30] [nM]
1 | OCUB-M | 119 | 3.35 | 0.132 | > 10000 | > 10000 | 133 | > 10000 | > 10000 | 0.279 | 9580 | 6.6 | 3830 | 3680 | > 10000 | 483 | > 10000 | 1690 | 2850 | 3520 | 8.13 | 2200 | 0.888 | 1880 | 156 | 1.98 | 5.92 | 2770 | 1.27 | 520 | > 10000
2 | SKBR 3 | 18.9 | 5.5 | 0.587 | 6720 | > 10000 | 190 | > 10000 | > 10000 | 0.589 | 3740 | 9.97 | 4790 | 2350 | > 10000 | 404 | 2630 | 2690 | 1080 | 3410 | 5.39 | 43.7 | 1.68 | 4770 | 279 | 20.4 | 3.33 | 3490 | 4.74 | 499 | > 10000
3 | SUM 44 PE | 15.8 | 9.46 | 0.222 | 5200 | > 10000 | 139 | > 10000 | > 10000 | 0.414 | > 10000 | > 10000 | 5050 | > 10000 | > 10000 | 539 | > 10000 | 3440 | 2880 | 5020 | 9.33 | 4760 | 1.35 | 8640 | 3270 | 30.8 | 2.21 | 4200 | 20.7 | 564 | > 10000
4 | SUM 52 PE | 35.4 | 5.23 | 0.165 | 6890 | > 10000 | 183 | 1270 | 2200 | 0.489 | 8810 | 23.2 | 655 | 2210 | > 10000 | 427 | 7870 | 2000 | 570 | 1160 | 7.17 | 3210 | 1.42 | 1240 | 185 | 17.7 | 1.47 | 711 | 7.57 | 366 | 6700
5 | T 47 D | 913 | 1.7 | 0.143 | 3420 | > 10000 | 239 | > 10000 | > 10000 | 0.62 | 7140 | > 10000 | 2730 | > 10000 | > 10000 | 1460 | 8770 | 7300 | 1100 | 4310 | 10.5 | 2210 | 1.72 | 2800 | 403 | 10.4 | 8.14 | 2520 | 2.65 | 828 | > 10000
6 | UACC 812 | 3.62 | 7.5 | 0.144 | > 10000 | 822 | 901 | > 10000 | 1600 | 1.65 | 4080 | > 10000 | 3110 | > 10000 | 1720 | 528 | 4830 | > 10000 | 1050 | 5490 | 29.9 | 132 | 5.67 | 6240 | 666 | 79.9 | 17.2 | 3540 | 275 | 2270 | > 10000
7 | ZR 75-1 | 45.9 | 5.51 | 0.244 | 4490 | > 10000 | 1680 | > 10000 | 1660 | 4.52 | > 10000 | 34.5 | 5980 | > 10000 | > 10000 | 733 | > 10000 | 3750 | 822 | > 10000 | 46.8 | 6330 | 6.65 | 2320 | 822 | 44.9 | 27.1 | 3820 | 10.2 | 2980 | > 10000
